This is an account of results in PubChem BioAssay AID602234 (The Scripps Research Institute Molecular Screening Center, 2012).

The experiment can be described thus: NCOA3 reporter inhibition potency – cell-based, luminescence, counter-screen for SRC1 inhibitor project, dose response (AID 602234).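 Note: HEK293 cells co-transfected with pGL4.31 reporter and pBIND-SRC3 fusion vector; potency for inhibition of reporter luminescence with Gossypol as full inhibition.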 Conditions: transfected HEK293 cells, counter-screen luciferase reporter. (Counterscreens check selectivity or assay interference.)

SMILES strings stand for the structures. Calls of active or inactive are those of the source. The rule behind the calls is not given here.

Usually IC50 stands for the concentration that gives 50% inhibition. On to `S=C(Nc1ccccc1)Nc1ccc(OCc2ccc(Cl)cc2Cl)cc1`, for which the half-maximal inhibitory concentration (IC50) is 1.39 µM.
Regarding `Cc1cccc(C)c1-n1nnnc1C(c1cccs1)N1CCC2(CC1)C(=O)NCN2c1ccccc1` (stereo unspecified), the IC50 is 18.9 µM (inactive).
The value for `Cc1ccc(NC(=O)CCC(=O)N/N=C/c2ccc(O)cc2O)cc1` was 13.5 µM (inactive); that for `COc1cc(C(=O)NC(=S)NNC(=O)c2cnccn2)cc(OC)c1OC` was 3.58 µM.
The value for `Cc1ccc2occ(/C=N/NC(=O)c3ccncc3)c(=O)c2c1` was 15.3 µM (inactive); that for `COc1ccc(C(O)(C(C)C)C(CN2CCOCC2)c2ccc(Cl)cc2)cc1` (stereo unspecified) was 13.4 µM (inactive); that for `Cc1ccc(OCC(=O)c2cc(C)n(-c3ccccc3)c2C)c([N+](=O)[O-])n1` was 2.46 µM.
For `Cn1nc(C(F)(F)F)c(C#N)c1N1CCN(c2ccc(F)cc2)CC1` the value was 2.13 µM; for `Oc1ccc(C=NNc2ccccn2)c(O)c1`, 6.53 µM.
Take `CCCCC(CC)COCCCN=Cc1c(O)[nH]c(=S)[nH]c1=O` (stereo unspecified): the IC50 is 5.74 µM.
For `COc1ccc2[nH]c(=O)c(CN(CCN3CCCC3)C(=O)Nc3ccccc3Cl)cc2c1` the value was 8.7 µM.
For `CCOc1ccccc1-n1c(SCC(=O)Nc2ccccc2C(=O)O)nc2ccccc2c1=O` the value was 9.64 µM.
For `COc1cc2c(cc1OC)C(C)N(C(=O)c1cccc([N+](=O)[O-])c1)CC2` (stereo unspecified) the value was 7.27 µM.
Take `CCc1c(C)nc2c(C)cccc2c1SCCC#N`: the IC50 was 13.6 µM (inactive).
Consider `COc1ccc(NC(=O)CN(C)C(=O)C2(c3ccccc3)CCCC2)cc1`, for which the concentration for half-maximal inhibition (IC50) was 5.39 µM.
The value for `CN1CCN(c2cccc3c2C(=O)c2ccccc2C3=O)CC1` was > 35.9 µM (inactive); that for `C=CCn1c(O)c(C(C)=NCc2cc(OC)cc(OC)c2)c(=O)[nH]c1=O` was 1.02 µM; that for `S=C(c1ccc(-c2ccccc2)cc1)N1CCOCC1` was 7.59 µM.
As to `COc1cccc(NC(=O)CN(C)CC(=O)Nc2ccc(Cl)cc2[N+](=O)[O-])c1`, the IC50 was 17.8 µM (inactive).
The value for `Cn1nc(C(F)(F)F)c(C#N)c1N1CCN(c2ccccc2)CC1` was 4.13 µM; that for `CCN1CCN(C(=S)c2ccc(-c3ccccc3)cc2)CC1` was 4.62 µM.
The value for `CCOC(=O)c1cccc2c1-c1ccccc1/C2=N/O` was 3.73 µM; that for `Cc1c(/C(O)=C2/C(=O)C(=O)N(Cc3cccnc3)C2c2ccccn2)cnn1-c1ccccc1` (stereo unspecified) was 6.55 µM.
Turning to `COc1ccccc1CNC(=O)C(=O)NCCC1CCCCN1S(=O)(=O)c1ccc(C)cc1` (stereo unspecified), the IC50 is 10.2 µM (inactive).
For `COc1cccc(/C=N/NC(=O)CNC(=O)C2COc3ccccc3O2)c1O` (stereo unspecified) the value was 4.31 µM; for `O=C1CCC2S/C(=C/Nc3ccc(C(F)(F)F)cc3)C(=O)N12` (stereo unspecified), 7.25 µM.
